Laboratory results published in patent publication US5994342A, “3-(substituted methyl)-4-oxa-1-azabicyclo[3.2.0]heptan-7-one derivatives useful as antitumor agents” (priority 1994, dated 1999).
Converted amounts (≈) assume the structure as drawn. Structures can show the parent of a compound that is named as a salt. Where two headings read alike, the source gives them in different places.

Experiments:
KB cells = experiment: In vitro KB cell cytotoxicity assay (crystal violet); type: cell-based; conditions: Homo sapiens, 72 h, 3 days culture, read-out: KB Cell Cytotoxicity TD50
Summary of the method: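 Cells seeded at 3×10^4 cells/ml in Eagle's MEM with 10% calf serum, cultured one day, then exposed to compound for three days at 37° C, 5% CO2. Glutaraldehyde-fixed cells stained with 0.05% crystal violet, eluted and read at OD540; TD50 from linear regression of log-logit plot of growth inhibition.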

L-1210 (S) cells = experiment: In vitro L1210 cell cytotoxicity (microculture tetrazolium assay), sensitive line; type: cell-based; conditions: Mus musculus, L1210, 72 h, read-out: Cell Toxicity L-1210 (S) (TD50)
Procedure: (§1) In Vitro L1210 and P388 Cell Cytotoxicity Assay
(§2) Cells were counted using neubauer hemocytometer and seed in 96 well plates at 100 μl of 0.5×10^4 cells per ml. […] Control wells were identical except that the test compound was absent. These were cultured for three days. Results were assayed using the microculture tetrazolium assay briefly. 50 μl of MTT formazoan working solution (1:5 v/v in culture medium) was added to each well and cultures were incubated at 37° C. for 4 hrs. Culture plates were centrifuged at low speed for 5 minutes. All but 10-20 μl of culture medium supernatant was removed by slow aspiration and […] and read at OD540 on a multiscan spectrophotometer. Inhibition value of cell growth was calculated based on optical density using the following equation; [formula]
(§3) TD50 values were calculated from linear regression ines of the log-logit plot.

L-1210 (R) cells = experiment: In vitro L1210 cell cytotoxicity (microculture tetrazolium assay), resistant line; type: cell-based; conditions: Mus musculus, L1210, 72 h, read-out: Cell Toxicity L-1210 (R) (TD50)
Procedure: as §1, §2, §3

P388 (S) cells = experiment: In vitro P388 cell cytotoxicity (microculture tetrazolium assay), sensitive line; type: cell-based; conditions: Mus musculus, 72 h, read-out: Cell Toxicity P388 (S) (TD50)
Procedure: as §1, §2, §3

P388 (R) cells = experiment: In vitro P388 cell cytotoxicity (microculture tetrazolium assay), resistant line; type: cell-based; conditions: Mus musculus, read-out: Cell Toxicity P388 (R) (TD50)
Procedure: as §1, §2, §3

Sarcoma 180 = experiment: In vivo antitumor activity against Sarcoma 180; set-up: species or system male ICR mice; conditions: i.p., days 1, 5 and 9
Procedure: In Vivo Antitumor Activity Against Sarcoma 180
The compounds of general formula (I) were tested in vivo against Sarcoma 180 xenografted tumor to mice as illustrated herein after.
Sarcoma 180, 5×10^6 cells were inoculated by S.C. to male ICR mice (6 week old) on day 0. Drugs were administered on days 1, 5 and 9. Mice were killed and tumor weight was measured on day 12 after transplantation. The percentage inhibition of tumor growth was calculated from the mean tumor weight of the treated group compared with that of the control group. Number of mice used in each group was between 6 to 7.

antitumor activity [1] = experiment: Antitumor activity of clavam 1 in vitro; type: cell-based
antitumor activity [2] = experiment: Antitumor activity of clavam 1 in vivo
Chemical stability = type: physicochemical
antifungal activity = conditions: reported by Brown and Evans; cited from earlier work
[3] = L-1210 sensitive, 3 days culture
[4] = L-1210 resistant, 3 days culture
[5] = 72 h, P388 resistant, 3 days culture
[6] = Mus musculus, Sarcoma-180, ip, 288 h, 12.5 mg/kg/day, tumor s.c., tumor weight day 12, read-out: % Inhibition of tumor growth
[7] = Mus musculus, Sarcoma-180, ip, 288 h, 25 mg/kg/day, tumor s.c., tumor weight day 12, read-out: % Inhibition of tumor growth
[8] = Mus musculus, Sarcoma-180, ip, 288 h, 50 mg/kg/day, tumor s.c., tumor weight day 12, read-out: % Inhibition of tumor growth
[9] = Mus musculus, Sarcoma-180, ip, 288 h, 100 mg/kg/day, tumor s.c., tumor weight day 12, read-out: % Inhibition of tumor growth

CC(=O)NC[C@@H]1CN2C(=O)C[C@H]2O1 (racemic) [Example 1, (3RS,5RS)-3-(N-Acetylaminomethyl)-4-oxa-1-azabicyclo[3.2.0]heptan-7-one]
IC50 (KB cells): 0.263 µg/mL (≈ 1.43 µM)
IC50 (L-1210 (S) cells; [3]): 0.103 µg/mL (≈ 0.559 µM)
IC50 (L-1210 (R) cells; [4]): 0.104 µg/mL (≈ 0.565 µM)
IC50 (P388 (S) cells; P388 sensitive, 3 days culture): 0.103 µg/mL (≈ 0.559 µM)
IC50 (P388 (R) cells; [5]): 0.074 µg/mL (≈ 0.402 µM)
Mortality in 12 days (Sarcoma 180; 3.1 mg/kg/day): 0/6
Mortality in 12 days (Sarcoma 180; 6.25 mg/kg/day): 0/6
Mortality in 12 days (Sarcoma 180; 12.5 mg/kg/day): 0/6
inhibition in vivo at 3.1 mg/kg (Sarcoma 180; Mus musculus, Sarcoma-180, ip, 288 h, 3.1 mg/kg/day, tumor s.c., tumor weight day 12, read-out: % Inhibition of tumor growth): 33.9%
inhibition in vivo at 6.25 mg/kg (Sarcoma 180; Mus musculus, Sarcoma-180, ip, 288 h, 6.25 mg/kg/day, tumor s.c., tumor weight day 12, read-out: % Inhibition of tumor growth): 49.3%
inhibition in vivo at 12.5 mg/kg (Sarcoma 180; [6]): 71.4%

COc1cccc2c1C(=O)c1c(O)c3c(c(O)c1C2=O)C[C@@](O)(C(=O)CO)C[C@@H]3O[C@H]1C[C@H](N)[C@H](O)[C@H](C)O1 [Adriamycin]
IC50 (L-1210 (S) cells): 0.004 µg/mL (≈ 0.00736 µM)
IC50 (L-1210 (R) cells): 0.36 µg/mL (≈ 0.662 µM)
IC50 (P388 (S) cells): 0.003 µg/mL (≈ 0.00552 µM)
IC50 (P388 (R) cells; P388, 72 h): 0.575 µg/mL (≈ 1.06 µM)

CC(C)[C@H](N)C(=O)N[C@H](C(=O)OCC1CN2C(=O)CC2O1)C(C)C (stereo partly drawn) [Example 56B, (3RS,5SR)-3-[L-2-N-(L-2-Amino-3-methylbutyryl)amino-3-methylbutyryl]oxymethyl-4-oxa-1-azabicyclo-[3.2.0]heptan-7-one hydrochloride]
IC50 (KB cells): 0.283 µg/mL
Mortality in 12 days (Sarcoma 180; 12.5 mg/kg/day): 0/6
Mortality in 12 days (Sarcoma 180; 25 mg/kg/day): 0/6
Mortality in 12 days (Sarcoma 180; 50 mg/kg/day): 0/6
inhibition in vivo at 12.5 mg/kg (Sarcoma 180; [6]): 48.9%
inhibition in vivo at 25 mg/kg (Sarcoma 180; [7]): 69.2%
inhibition in vivo at 50 mg/kg (Sarcoma 180; [8]): 73.2%

CC(C)[C@H](NC(=O)[C@@H](N)CC(=O)O)C(=O)OCC1CN2C(=O)CC2O1 (stereo partly drawn) [Example 57B, (3RS,5RS)-3-N-[L-2-N-(L-2-Amino-3-carboxypropanoyl)amino-3-methylbutyryl]oxymethyl-4-oxa-1-azabicyclo[3.2.0]heptan-7-one]
IC50 (KB cells): 1.54 µg/mL (≈ 4.31 µM)
Mortality in 12 days (Sarcoma 180; 12.5 mg/kg/day): 0/6
Mortality in 12 days (Sarcoma 180; 25 mg/kg/day): 0/6
Mortality in 12 days (Sarcoma 180; 50 mg/kg/day): 1/6
inhibition in vivo at 12.5 mg/kg (Sarcoma 180; [6]): 40.9%
inhibition in vivo at 25 mg/kg (Sarcoma 180; [7]): 58.1%
inhibition in vivo at 50 mg/kg (Sarcoma 180; [8]): 83.1%

CC(C)[C@@H](N)C(=O)N[C@@H](C(=O)OCC1CN2C(=O)CC2O1)C(C)C (stereo partly drawn) [Example 62B, (3RS,5SR)-3-[D-2-N-(D-2-Amino-3-methylbutyryl)amino-3-methylbutyryl]oxymethyl-4-oxa-1-azabicyclo[3.2.0]heptan-7-one hydrochloride]
IC50 (KB cells): 0.381 µg/mL
Mortality in 12 days (Sarcoma 180; 100 mg/kg/day): 0/6
inhibition in vivo at 100 mg/kg (Sarcoma 180; [9]): 42.1%

N[C@@H](Cc1ccccc1)C(=O)NCC1CN2C(=O)CC2O1 (stereo partly drawn) [Example 63B, (3RS,5RS)-3-N-(L-2-Amino-3-phenylpropanoyl)aminomethyl-4-oxa-1-azabicyclo[3.2.0]heptan-7-one hydrochloride]
IC50 (KB cells): 0.573 µg/mL
Mortality in 12 days (Sarcoma 180; 50 mg/kg/day): 0/6
Mortality in 12 days (Sarcoma 180; 100 mg/kg/day): 0/6
inhibition in vivo at 50 mg/kg (Sarcoma 180; [8]): 50.3%
inhibition in vivo at 100 mg/kg (Sarcoma 180; [9]): 57.6%

N[C@@H](CC(=O)O)C(=O)NCC1CN2C(=O)CC2O1 (stereo partly drawn) [Example 67B, (3RS,5RS)-3-N-(L-2-Amino-3-carboxypropanoyl)aminomethyl-4-oxa-1-azabicyclo[3.2.0]heptan-7-one]
IC50 (KB cells): 6.04 µg/mL (≈ 23.5 µM)
Mortality in 12 days (Sarcoma 180; 50 mg/kg/day): 0/6
Mortality in 12 days (Sarcoma 180; 100 mg/kg/day): 0/6
inhibition in vivo at 50 mg/kg (Sarcoma 180; [8]): 41.1%
inhibition in vivo at 100 mg/kg (Sarcoma 180; [9]): 65.9%

N[C@H](CCC(=O)NCC1CN2C(=O)CC2O1)C(=O)O (stereo partly drawn) [Example 69B, (3RS,5RS)-3-N-(D-4-Amino-4-carboxybutyryl)aminomethyl-4-oxa-1-azabicyclo[3.2.0]heptan-7-one]
IC50 (KB cells): 2.47 µg/mL (≈ 9.11 µM)
Mortality in 12 days (Sarcoma 180; 100 mg/kg/day): 0/6
inhibition in vivo at 100 mg/kg (Sarcoma 180; [9]): 37.8%

CC(C)[C@H](N)C(=O)N[C@@H](COCc1ccccc1)C(=O)OCC1CN2C(=O)CC2O1 (stereo partly drawn) [Example 74B, (3RS,5SR)-3-[L-2-N-(L-2-N-Amino-3-methylbutyryl)amino-3-benzyloxypropanoyloxymethyl]-4-oxa-1-azabicyclo[3.2.0]heptan-7-one hydrochloride]
IC50 (KB cells): 0.669 µg/mL
Mortality in 12 days (Sarcoma 180; 50 mg/kg/day): 0/6
Mortality in 12 days (Sarcoma 180; 100 mg/kg/day): 1/6
inhibition in vivo at 50 mg/kg (Sarcoma 180; [8]): 49.9%
inhibition in vivo at 100 mg/kg (Sarcoma 180; [9]): 84.1%

CC(=O)N[C@@H](CO)C(=O)OCC1CN2C(=O)CC2O1 (stereo partly drawn) [Example 75A, (3RS,5SR)-3-(L-2-Acetamido-3-hydroxypropanoyl)oxymethyl-4-oxa-1-azabicyclo[3.20]heptan-7-one]
IC50 (KB cells): 1.98 µg/mL (≈ 7.27 µM)
Mortality in 12 days (Sarcoma 180; 12.5 mg/kg/day): 0/6
Mortality in 12 days (Sarcoma 180; 25 mg/kg/day): 0/6
inhibition in vivo at 12.5 mg/kg (Sarcoma 180; [6]): 42.8%
inhibition in vivo at 25 mg/kg (Sarcoma 180; [7]): 61.9%

O=C(NCCCC[C@H](NC(=O)OCc1ccccc1)C(=O)OCC1CN2C(=O)CC2O1)OCc1ccccc1 (stereo partly drawn) [Example 77A, (3RS,5SR)-3-(L-2,6-N-Dibenzyloxycarbonylaminohexanoyl)oxymethyl-4-oxa-1-azabicyclo[3.2.0]heptan-7-one]
IC50 (KB cells): 1.18 µg/mL (≈ 2.19 µM)
Mortality in 12 days (Sarcoma 180; 50 mg/kg/day): 0/6
Mortality in 12 days (Sarcoma 180; 100 mg/kg/day): 2/6
inhibition in vivo at 50 mg/kg (Sarcoma 180; [8]): 39.1%
inhibition in vivo at 100 mg/kg (Sarcoma 180; [9]): 67.3%

CC(C)C(N)C(=O)NC(C(=O)O)C(O)C1CN2C(=O)CC2O1 (centres unmarked) [Example G0069A]
IC50 (L-1210 (S) cells; [3]): 2.17 µg/mL (≈ 6.88 µM)
IC50 (L-1210 (R) cells; [4]): 1.87 µg/mL (≈ 5.93 µM)
IC50 (P388 (S) cells; P388 sensitive, 3 days culture): 1.02 µg/mL (≈ 3.23 µM)
IC50 (P388 (R) cells; [5]): 0.751 µg/mL (≈ 2.38 µM)

CC[C@]1(O)C[C@H]2CN(CCc3c([nH]c4ccccc34)[C@@](C(=O)OC)(c3cc4c(cc3OC)N(C=O)[C@H]3[C@@](O)(C(=O)OC)[C@H](OC(C)=O)[C@]5(CC)C=CCN6CC[C@]43[C@@H]65)C2)C1 [Vincristine]
IC50 (L-1210 (S) cells): 0.002 µg/mL (≈ 0.00242 µM)
IC50 (L-1210 (R) cells): 0.2 µg/mL (≈ 0.242 µM)
IC50 (P388 (R) cells; P388, 72 h): 0.279 µg/mL (≈ 0.338 µM)

O=C1C[C@@H]2O[C@@H](CO)CN12 [clavam 1, (3R,5S)-3-hydroxymethyl-4-oxa-1-azabicyclo[3.2.0]heptan-7-one]
antitumor activity in vitro (antitumor activity [1]): excellent antitumor activity
antitumor activity in vivo (antitumor activity [2]): excellent antitumor activity
chemical stability (Chemical stability): chemically unstable
antifungal activity (antifungal activity): exhibit antifungal activity
